Values quoted from earlier work as cited in US20180271919A1, “PROBIOTIC COMPOSITION AT LEAST COMPRISING BIFIDOBACTERIUM BIFIDUM W23 AND CAPABLE OF CONTROLLING INTESTINAL BARRIER FUNCTION” (Winclove Holding B.V., priority 2015, published 2018).

Test system: patients with schizophrenia
Conditions: patients with schizophrenia prescribed the drug

- Rate of metabolic syndrome: 52%
SMILES: CN1CCN(C2=Nc3cc(Cl)ccc3Nc3ccccc32)CC1 [clozapine]
